Active and inactive are the calls of the source. The rule behind the calls is not given here.
Tests used:
4T1 [1] = experiment: Upregulation of DUSP1 protein expression in mouse 4T1 cells incubated for 24 hrs by Western blot analysis; format: functional, cell-based; conditions: dose 0.02-2.5 µM
4T1 [2] = experiment: Antiproliferative activity against mouse 4T1 cells assessed as reduction in cell viability incubated for 72 hrs by MTT assay; format: functional, cell-based; conditions: 4T1, 72 h
MDA-MB-231 [3] = experiment: Induction of lipid ROS accumulation in human MDA-MB-231 cells incubated for 24 hrs by BODIPY-C11 probe based flow cytometric analysis; format: functional, cell-based; conditions: dose 0.25-1 µM
4T1 [4] = experiment: Inhibition of cell adhesion in mouse 4T1 cells assessed as rounded form appearance of cells at 0.02 to 0.5 uM incubated for 24 hrs by microscopic analysis; format: functional, cell-based; conditions: dose 0.02-0.5 µM
MDA-MB-231 [5] = experiment: Induction of ferroptosis in human MDA-MB-231 cells assessed as decrease in FTH1 expression by Western blot analysis; format: functional, cell-based; conditions: dose 0.25-1 µM
[6] = Acute toxicity in female ICR mouse assessed as spleen pathological abnormalities at 50 mg/kg, ip measured after 2 days; format: organism-based; conditions: in vivo, 48 h, time 2 day
MDA-MB-231 [7] = experiment: Induction of ferroptosis in human MDA-MB-231 cells xenografted in nude mouse assessed as reduction in GPX4 level at 10 to 20 mg/kg, ip administered for 30 days by immunohistochemistry analysis; format: functional, organism-based; conditions: dose 10-20 mg/kg, time 30.0 day
MDA-MB-231 [8] = experiment: Induction of lipid ROS accumulation in human MDA-MB-231 cells incubated for 24 hrs in presence of Fer-1 by BODIPY-C11 probe based flow cytometric analysis; format: functional, cell-based
MDA-MB-231 [9] = experiment: Induction of apoptosis in human MDA-MB-231 cells assessed as early apoptotic cells at 0.5 uM by Annexin V-FITC staining based flow cytometric analysis (reference value: 0.17 %); format: functional
MDA-MB-231 [10] = experiment: Induction of apoptosis in human MDA-MB-231 cells assessed as early apoptotic cells at 0.25 uM by Annexin V-FITC staining based flow cytometric analysis (reference value: 0.17 %); format: functional
MDA-MB-468 = experiment: Antiproliferative activity against human MDA-MB-468 cells assessed as reduction in cell viability incubated for 72 hrs by MTT assay; format: functional, cell-based; conditions: MDA-MB-468, 72 h
MDA-MB-231 [11] = experiment: Induction of apoptosis in human MDA-MB-231 cells assessed as viable cells at 0.5 uM by Annexin V-FITC staining based flow cytometric analysis (reference value: 91.03%); format: functional; conditions: read-out: Activity
4T1 [12] = experiment: Antiinvasive activity against mouse 4T1 cells assessed as reduction in cell invasion measured after 24 hrs by crystal violet staining based transwell invasion assay; format: functional; conditions: dose 0.02-0.5 µM
MDA-MB-231 [13] = experiment: Induction of ferroptosis in human MDA-MB-231 cells assessed as decrease in GPX4 expression in presence of Fer-1 by Western blot analysis; format: functional, cell-based
4T1 [14] = experiment: Downregulation of phosphorylated AKT protein level at Ser473 residue in mouse 4T1 cells at 0.02 to 2.5 uM incubated for 24 hrs by Western blot analysis; format: functional, cell-based; conditions: dose 0.02-2.5 µM
[15] = Acute toxicity in ip female ICR mouse assessed as lethal dose measured after 2 days; format: organism-based; conditions: in vivo, time 2 day
MCF7 = experiment: Antiproliferative activity against human MCF7 cells assessed as reduction in cell viability incubated for 72 hrs by MTT assay; format: functional, cell-based; conditions: MCF7, 72 h
MDA-MB-231 [16] = experiment: Induction of apoptosis in human MDA-MB-231 cells assessed as upregulation of PARP-1 expression at 0.25 to 1 uM by Western blot analysis; format: functional, cell-based; conditions: dose 0.25-1 µM
[17] = Toxicity in nude mouse xenografted with human MDA-MB-231 cells assessed as effect on body weight at 10 to 20 mg/kg, ip administered for 30 days; format: organism-based; conditions: in vivo, 720 h, dose 10-20 mg/kg, time 30 day
4T1 [18] = experiment: Downregulation of phosphorylated mTOR protein level at Ser2448 residue in mouse 4T1 cells at 0.02 to 2.5 uM incubated for 24 hrs by Western blot analysis; format: functional, cell-based; conditions: dose 0.02-2.5 µM
MDA-MB-231 [19] = experiment: Antitumor activity against human MDA-MB-231 cells xenografted in nude mouse assessed as reduction in tumor volume at 10 to 20 mg/kg, ip administered for 30 days; format: functional, organism-based; conditions: dose 10-20 mg/kg, time 30.0 day
MDA-MB-231 [20] = experiment: Antiinvasive activity against human MDA-MB-231 cells assessed as reduction in cell invasion measured after 24 hrs by crystal violet staining based transwell invasion assay; format: functional; conditions: dose 0.02-0.5 µM
4T1 [21] = experiment: Antimigratory activity in mouse 4T1 cells assessed as inhibition of cell migration at 0.02 to 0.5 uM incubated for 24 hrs by scratch assay; format: functional, cell-based; conditions: dose 0.02-0.5 µM
MDA-MB-231 [22] = experiment: Induction of apoptosis in human MDA-MB-231 cells assessed as late apoptotic cells at 0.25 uM by Annexin V-FITC staining based flow cytometric analysis (reference value: 0.02 %); format: functional
MDA-MB-231 [23] = experiment: Inhibition of Bcl2 expression in human MDA-MB-231 cells at 0.25 to 1 uM by Western blot analysis; format: functional, cell-based; conditions: dose 0.25-1 µM
MDA-MB-231 [24] = experiment: Induction of apoptosis in human MDA-MB-231 cells assessed as late apoptotic cells at 1 uM by Annexin V-FITC staining based flow cytometric analysis (reference value: 0.02 %); format: functional
MDA-MB-231 [25] = experiment: Induction of apoptosis in human MDA-MB-231 cells assessed as early apoptotic cells at 1 uM by Annexin V-FITC staining based flow cytometric analysis (reference value: 0.17 %); format: functional
MDA-MB-231 [26] = experiment: Induction of NO release in human MDA-MB-231 cells assessed NO concentration by Griess reagent based assay; format: functional
Mitochondria = experiment: Induction of ROS accumulation in mitochondria of human MDA-MB-231 cells at 0.25 to 1 uM by MitoSOX probe based flow cytometric analysis; format: functional; conditions: dose 0.25-1 µM
HCC1937 = experiment: Antiproliferative activity against human HCC1937 cells assessed as reduction in cell viability incubated for 72 hrs by MTT assay; format: functional, cell-based; conditions: HCC1937, 72 h
MDA-MB-231 [27] = experiment: Antitumor activity against human MDA-MB-231 cells xenografted in nude mouse assessed as reduction in tumor size at 10 to 20 mg/kg, ip administered for 30 days; format: functional, organism-based; conditions: dose 10-20 mg/kg, time 30.0 day
MDA-MB-231 [28] = experiment: Inhibition of cell adhesion in human MDA-MB-231 cells assessed as rounded form appearance of cells at 0.02 to 0.5 uM incubated for 24 hrs by microscopic analysis; format: functional, cell-based; conditions: dose 0.02-0.5 µM
[29] = Acute toxicity in female ICR mouse assessed as effect on body weight at <40 mg/kg, ip measured within 24 hrs; format: organism-based; conditions: in vivo
MDA-MB-231 [30] = experiment: Antiproliferative activity against human MDA-MB-231 cells assessed as reduction in cell viability incubated for 72 hrs by MTT assay; format: functional, cell-based; conditions: MDA-MB-231, 72 h
4T1 [31] = experiment: Antimetastatic activity in mouse 4T1 cells implanted in female BALB/c mouse assessed as reduction in number of metastatic nodules in lungs at 10 mg/kg, ip administered once daily for 2 weeks and measured 2 weeks after tumor removal with compound treatment (reference value: 193.7 +/- 6.50); format: functional; conditions: time 4 weeks
MDA-MB-231 [32] = experiment: Induction of ferroptosis in human MDA-MB-231 cells assessed as decrease in GPX4 expression by Western blot analysis; format: functional, cell-based; conditions: dose 0.25-1 µM
[33] = Drug metabolism in nude mouse xenografted with human MDA-MB-231 cells assessed as metabolite formation at 10 to 20 mg/kg, ip administered for 30 days by LC-MS/MS analysis; format: ADME, organism-based; conditions: in vivo, 720 h, dose 10-20 mg/kg, time 30 day

Structure (SMILES): CC[C@H]1O[C@@]2(C)[C@H](OC(C)=O)[C@@]1(C)O[C@@H](/C=C/C=C/C=C/c1oc(=O)cc(OC)c1C)[C@@H]2OC(=O)CCC(=O)OC/C=C/COc1no[n+]([O-])c1S(=O)(=O)c1ccccc1
- Activity (4T1 [1]): Dose-Dependent Effect
- IC50 (4T1 [2]): 870 nM
- Activity (MDA-MB-231 [3]): Dose-Dependent Effect
- inhibition (4T1 [4]): Active
- Activity (MDA-MB-231 [5]): Dose-Dependent Effect
- Activity [6]: Non-Toxic
- Activity (MDA-MB-231 [7]): Active
- Activity (MDA-MB-231 [8]): inactive
- Activity (MDA-MB-231 [9]): 16.23%
- Activity (MDA-MB-231 [10]): 12.97%
- IC50 (MDA-MB-468): 450 nM
- viability at 0.5 µM (MDA-MB-231 [11]): 75.3%
- Activity (4T1 [12]): Dose-Dependent Effect
- Activity (MDA-MB-231 [13]): inactive
- Activity (4T1 [14]): Active
- LD50 at 48 h [15]: 103 mg/kg
- IC50 (MCF7): > 50000 nM
- Activity (MDA-MB-231 [16]): Active
- Activity [17]: Non-Toxic
- Activity (4T1 [18]): Active
- Activity (MDA-MB-231 [19]): Active
- Activity (MDA-MB-231 [20]): Dose-Dependent Effect
- Activity (4T1 [21]): Active
- Activity (MDA-MB-231 [22]): 5.82%
- inhibition (MDA-MB-231 [23]): Active
- Activity (MDA-MB-231 [24]): 8.89%
- Activity (MDA-MB-231 [25]): 42.67%
- Activity (MDA-MB-231 [26]): 4.87 µM
- Activity (Mitochondria): Active
- IC50 (HCC1937): 870 nM
- Activity (MDA-MB-231 [27]): Active
- inhibition (MDA-MB-231 [28]): Active
- Activity [29]: Non-Toxic
- IC50 (MDA-MB-231 [30]): 630 nM
- Activity (4T1 [31]): 64.5
- Activity (MDA-MB-231 [32]): Dose-Dependent Effect
- Drug metabolism [33]: Metabolite_Detected

— ChEMBL document CHEMBL5523764, “Discovery of NO Donor-Aurovertin Hybrids as Dual Ferroptosis and Apoptosis Inducers for Treating Triple Negative Breast Cancer” (J Med Chem, 2024)
